The values below come from patent publication US20200157637A1, “TARGETING OF ANAPLASTIC LYMPHOMA KINASE IN SQUAMOUS CELL CARCINOMA” (BOARD OF REGENTS, THE UNIVERSITY OF TEXAS SYSTEM, priority 2017, published 2020).

Assay [1] relates to HSC3 cells. Kind of assay: Flow cytometry cell cycle analysis (PI staining), HSC3. The note with it: 500 nM each, 30 hr. The format is cell-based, Human. From the text: (§1) Flow cytometry. […] Cells were harvested, fixed in 70% EtoH, treated with RNase A, and stained with propidium iodide (PI).
The subject of the next assay is HSC3 mouse xenografts. As to the kind of experiment: OSCC mouse xenograft model (HSC3-derived tumors). The format is in vivo. The protocol:
OSCC mouse xenograft models. All studies were approved by the UTHSCSA institutional Animal Care and Use Committee. Six week-old female athymic nude mice (Harlan, Indianapolis, […].) were used in a laminar air-flow cabinet under pathogen-free conditions. Mice were provided with a 12 h light/dark schedule at controlled temperature and humidity with food and water ad libitum. Mice were acclimated for one week prior to study initiation. Mice were injected subcutaneously in the right flank with 3×10^6 HSC3 cells in 0.1 ml of sterile PBS. […] Treatments were repeated every day for a total of 14 days. Mice were monitored daily for tumor growth (using digital calipers), cachexia, and weight loss. Tumor volumes were calculated by the elliptical formula: ½ (Length×Width^2) (Jensen et al., 2008). At experimental conclusion, tumors were fixed and processed for histological analysis. Hematoxylin and eosin (H&E) staining and IHC studies were performed by the UTHSCSA Cancer Therapy and Research Center (CTRC) core pathology laboratory.

Assay [2] relates to EGFR signaling components in Ca127 cells. As to the kind of experiment: Western blot analysis of EGFR signaling components, Ca127. The format is cell-based, Human. The note with it: 500 nM each, 6 h. From the text:
(§2) Immunoblotting. […] SDS-PAGE separated proteins were transferred to PVDF membrane and the membrane blocked in 5% milk.
In general terms: A western blot detects proteins with antibodies after separation by electrophoresis.

For assay [3], the system named is EGFR signaling components in HSC3 cells. Kind of assay: Western blot analysis of EGFR signaling components, HSC3. The format is cell-based, Human. The note with it: 500 nM each, 6 h.
From the text: as §2

The subject of the next assay is Cal27 cells. As to the kind of experiment: Flow cytometry cell cycle analysis (PI staining), Cal27. The format is cell-based, Human. The settings on record: 500 nM each, 30 hr.
From the text: as §1
On the technique in general: A flow cytometer gives signals particle by particle.

The test system of assay [4] is Ca127 cells. As to the kind of experiment: Cell viability assay, Ca127. Format: cell-based, Human. The settings on record: 500 nM each, 48, 72 and 96 h. The protocol:
(§3) Cell viability assays. Cytotoxicity was assessed using the Cell Titer 96 Aqueous Non-Radioactive Cell Proliferation Assay (Promega, Madison, Wis.) according to manufacturer's protocol. Absorbance values of test groups were normalized against controls (n=4).

In assay [5] the test system is HSC3 cells. As to the kind of experiment: Cell viability assay, HSC3. Format: cell-based, Human. The settings on record: 500 nM each, 48, 72 and 96 h. On the procedure: as §3
The next assay relates to oral cancer patients. The settings on record: cited from earlier work.
Assay [6] has as its system Ca127 cells. As to the kind of experiment: Cell migration (IncuCyte wound-healing) assay, Ca127. Format: cell-based, Human. The settings on record: 500 nM each. The protocol: (§4) Cell migration assay. Cellular migration was performed using the IncuCyte ZOOM™ live cell image device (Essen Bioscience). After achieving cell confluence in 96-well format, the IncuCyte scratch system was used to generate simultaneous rectangular ‘wounds’ with a defined area in HSC3 and Ca127 cell layers. […] Images of cells moving within the wound area were taken by the automated Incu-Cyte system over intervals of 2 hr (HSC3) or 3 hr (Ca127). Migration was calculated as percent of cell confluence within the wound, starting at 0% confluence (i.e., no cells in the wound area). When the wound was completely filled with migrating cells, this was calculated at 100% confluence.

The subject of assay [7] is HSC3 cells. As to the kind of experiment: Cell migration (IncuCyte wound-healing) assay, HSC3. The settings on record: 500 nM each. The format is cell-based, Human. On the procedure:
as §4

The structures appear in SMILES notation. Entries after “also recorded” stand apart in the source; their conditions may differ.

For `COc1cc(N2CCC(N3CCN(C)CC3)CC2)ccc1Nc1ncc(Cl)c(Nc2ccccc2S(=O)(=O)C(C)C)n1` [TAE684], in the assay on HSC3 cells [1], the G1 is given as 95.23 % of cell distribution, the G2 is 3.73 % of cell distribution, the S is 0.84 % of cell distribution and the SubG1 is 0.34 % of cell distribution. The “tumor growth (in words)” value in the assay with HSC3 mouse xenografts (daily oral gavage for 14 days, TAE684 10 mg/kg, Gefitinib 100 mg/kg) is reported as “unaffected; also recorded: No change in tumor growth”. Further, the mean tumor volume in the assay on HSC3 mouse xenografts (day 14, daily oral gavage, TAE684 10 mg/kg, Gefitinib 100 mg/kg, vehicle control 431 mm^3) was found to be 381 mm^3. In addition, in assay [2], the “activation of STAT3 (p-STAT3 to total STAT3) (in words)” value is “slightly induced” and the “phospho-AKT / AKT activation (in words)” value is recorded as “significantly decreased”. Moreover, in [3], the “activation of STAT3 (p-STAT3 to total STAT3) (in words)” value is given as “induced” and the “phospho-AKT / AKT activation (in words)” value is “significantly reduced”. Also, in the assay on Cal27 cells, the G1 is given as 88.11 % of cell distribution, the G2 was 8.40 % of cell distribution, the S is given as 2.25 % of cell distribution and the SubG1 is recorded as 1.68 % of cell distribution. Moreover, the “cell growth (in words)” value in the assay on Ca127 cells [4] was “significant anti-proliferative effects”. Also, the “cell growth (in words)” value in the assay with HSC3 cells [5] was “significant anti-proliferative effects”.

For the compound `C#Cc1cccc(Nc2ncnc3cc(OCCOC)c(OCCOC)cc23)c1` [Erlotinib], in the assay with oral cancer patients (oral cancer patients with stage I disease), the response rate is 10-15%. The “response (in words)” value in the assay on oral cancer patients (patients with stages II, III, and IV disease) is recorded as “failed to respond entirely”.

Consider `COc1cc2ncnc(Nc3ccc(F)c(Cl)c3)c2cc1OCCCN1CCOCC1` [Gefitinib], for which the G1 is listed as 95.60 % of cell distribution in the assay with HSC3 cells [1] and 90.79 % of cell distribution in the assay on Cal27 cells. In addition, the G2 with HSC3 cells [1] is 1.87 % of cell distribution; in the assay with Cal27 cells it was 4.44 % of cell distribution. Further, the values for the S in the assay with HSC3 cells [1] and in the assay on Cal27 cells were 0.0 % of cell distribution and 2.59 % of cell distribution, respectively. Further, the SubG1 in the assay with HSC3 cells [1] is 2.03 % of cell distribution; in the assay on Cal27 cells, 2.53 % of cell distribution. Besides, the “cell migration (in words)” value is “significantly reduced at 9 h and remained significantly low for 48 h” in the assay with Ca127 cells [6]; “significant reduction from 2 to 8 h” in the assay on HSC3 cells [7]. Moreover, in the assay with HSC3 mouse xenografts (day 6, Gefitinib 100 mg/kg daily, oral gavage), the “tumor volume compared to control” value is 57 % of control. In addition, the “cell growth (in words)” value with Ca127 cells [4] and in the assay on HSC3 cells [5] was “significant anti-proliferative effects” throughout.
